According to patent US4544556A, “Xanthine derivatives, pharmaceutical compositions containing same and their therapeutic use” (Malesci S.p.A. Istituto Farmacologico, priority 1982, dated 1985):
Where two headings read alike, the source gives them in different places.

Columns and labels:
guinea pigs = experiment: Activity on CNS: reaction to subtoxic dose of cardiazole, guinea pigs; format: in vivo; settings: cardiazole i.p. 60-70 mg/Kg
mouses = experiment: Activity on CNS: reaction to subtoxic dose of cardiazole, mouses; format: in vivo; settings: cardiazole i.p. 60-70 mg/Kg
heart P.D.E. = experiment: Antiphosphodiesterase activity, heart P.D.E.; format: biochemical, Wistar rats; settings: rat heart, relative to theophylline
Excerpt: (§1) The preparation of the enzyme from heart, lungs and brain of Wistar rats and the activity test of P.D.E. have been carried out according to the R. W. BUTCHER and E. W. […] (J. Biol. Chem. 237, 1244; 1962).

[1] = test system: acetylcholine induced bronchospasm; experiment: Antibronchospastic activity (acetylcholine induced bronchospasm, Konzett-Rossler method); format: in vivo, guinea pigs; settings: Cavia porcellus, im, read-out: ED50 (50% reduction of acetylcholine induced bronchospasm)
Excerpt: The test has been carried out in anaesthesized adult guinea pigs under artificial respiration.

lung P.D.E. = experiment: Antiphosphodiesterase activity, lung P.D.E.; format: biochemical, Wistar rats; settings: rat lungs, relative to theophylline
Excerpt: as §1

brain P.D.E. = experiment: Antiphosphodiesterase activity, brain P.D.E.; format: biochemical, Wistar rats; settings: rat brain, relative to theophylline
Excerpt: as §1

rats = experiment: Activity on CNS: reaction to subtoxic dose of cardiazole, rats; format: in vivo; settings: cardiazole i.p. 60-70 mg/Kg
Acute toxicity = settings: mouse, in vivo, male Swiss mouses about 20 g, empty since 16 hours, read-out: DL50 (the source's name)
Procedure: The compound has been administered either per os or by intravenous injection to male Swiss mouses having a weight of about 20 g, empty since 16 hours.

[2] = 0.5 h, 30' after intramuscular administration
[3] = 1 h, 60' after intramuscular administration
[4] = 1.5 h, 90' after intramuscular administration

| SMILES | % dead animals (guinea pigs; 50 mg/kg S.C. (20')) | % dead animals (guinea pigs; 100 mg/kg S.C. (20')) | % dead animals (mouses; 25 mg/kg S.C. (20')) | % dead animals (mouses; 50 mg/kg S.C. (20')) | % dead animals (mouses; 100 mg/kg S.C. (20')) | activity against heart P.D.E. in comparison with theophylline (heart P.D.E.) | ED50 [1, 2] | ED50 [1, 3] | ED50 [1, 4] | activity against lung P.D.E. in comparison with theophylline (lung P.D.E.) | activity against brain P.D.E. in comparison with theophylline (brain P.D.E.) | % dead animals (rats; 50 mg/kg S.C. (20')) | % dead animals (rats; 100 mg/kg S.C. (20')) | LD50 (Acute toxicity; po, per os) | LD50 (Acute toxicity; intravenous injection) |
| --- | --- | --- | --- | --- | --- | --- | --- | --- | --- | --- | --- | --- | --- | --- | --- |
| CC(C)Cn1cnc2c1c(=O)n(C)c(=O)n2C [7-isobutyl theophylline, 1,3-dimethyl-7-isobutyl-xanthine] | 0% | 0% | 0% | 0% | 0% | four times more active | 120 µmol/kg | 140 µmol/kg | 160 µmol/kg | four times more active | twice more active | 0% | 0% | 199 mg/kg | 129 mg/kg |
| Cn1c(=O)c2[nH]cnc2n(C)c1=O [Theophylline, theophylline, reference compound] |  |  |  |  |  |  | 270 µmol/kg | 230 µmol/kg | 200 µmol/kg |  |  |  |  |  |  |
